According to patent US12454494B2, “Process for the reduction of gas emission from farm manure” (Alzchem Trostberg GmbH, priority 2018, dated 2025):

System: cattle liquid manure
Test: Example 5: methane and CO2 emissions from cattle liquid manure during 170 days storage with Compositions 1, 2, 4, 5, 6
Conditions: cf. Example 5
Description: After stirring, the pH value and conductivity in the mixture were measured, and then the wide-neck container was immediately sealed tightly. An opening was drilled in the lid of the wide-neck container, in which a sealed gas storage bag (nominal volume 5.6 liters) was connected and in which the released gas volume was collected. This structure prevented atmospheric oxygen from entering the wide-neck container. This prevented CO2 from the air from falsifying the measurement results. The mixture was stored for exactly 170 days without stirring or agitation at a temperature of 23±1° C. and at an air pressure of 960 to 980 hPa and at 493 m above standard sea level (NHN). At regular intervals, the filled gas storage bag was exchanged, the stored gas volume was determined volumetrically, and the gas composition was analyzed by gas chromatography. […] After stirring, the pH value and conductivity in the mixture were measured, and then the wide-neck container was immediately sealed tightly. […] At regular intervals, the filled gas storage bag was exchanged, the stored gas volume was determined volumetrically, and the gas composition was analyzed by gas chromatography. […] After stirring, the pH value and conductivity in the mixture were measured, and then the wide-neck container was immediately sealed tightly. […]

Row | Compound | Effect alone on the emission of methane and carbon dioxide
1 | [Ca+2].[OH-].[OH-] [calcium hydroxide] | additional effect
2 | O=C([O-])[O-].[Ca+2] [calcium carbonate] | no impact
